We go through six compounds from patent US8871753B2, “Macrocyclic compounds and their use as kinase inhibitors” (Incyte Corporation, priority 2008, dated 2014).

Structures are written as SMILES. Counter-ions that a name gives are not always drawn. Like-named read-outs stand apart in the source and are kept apart here.

Type in all cases: biochemical
For experiment [1], the target named is T1, human JAK2 (a.a. 828-1132) (Homo sapiens, UniProt O60674).
T1 construct: JAK2 (a.a. 828-1132); His tag (N); made in house; host or cells: insect cells (baculovirus)
The experiment is described as follows: In vitro JAK kinase assay (HTRF, phosphorylation of a biotinylated peptide), JAK2. A digest of the protocol:
(§1)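 Kinase reactions ran at room temperature for 1 h with ATP matched per isoform (JAK1 90 μM, JAK2 30 μM, JAK3 3 μM). After an EDTA stop, the phosphorylated biotin-peptide was read by HTRF using Eu-Py20 and SA-APC after 40 min binding.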

Experiment [2] addresses T2, human JAK1 (a.a. 837-1142) (Homo sapiens, UniProt P23458).
T2 construct: human JAK1 (a.a. 837-1142); His tag (N); made in house; host or cells: insect cells (baculovirus)
The experiment is described as follows: In vitro JAK kinase assay (HTRF, phosphorylation of a biotinylated peptide), JAK1. The note with it: read-out: JAK1 IC50. Summed up: as §1
For orientation: TR-FRET usually uses a lanthanide donor and a delayed reading to cut background.

The target of experiment [3] is T3, human JAK3 (a.a. 781-1124) (Homo sapiens, UniProt P52333).
T3 construct: JAK3 (a.a. 781-1124); His tag (N); made in house; host or cells: insect cells (baculovirus)
Nature of the experiment: In vitro JAK kinase assay (HTRF, phosphorylation of a biotinylated peptide), JAK3. Summed up: as §1

A further experiment concerns the target TYK2 (Homo sapiens, UniProt P29597). Nature of the experiment: TYK2 kinase inhibition (Table A1).
Experiment [4] has as its target T4, Recombinant Human Anaplastic Lymphoma Kinase (Homo sapiens, UniProt Q9UM73).
T4 construct: purchased Invitrogen, Carlsbad, Calif
The experiment is described as follows: ALK HTRF kinase assay. Summed up: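 TR-FRET read-out (Eu anti-pTyr antibody + streptavidin-APC) of biotin-peptide phosphorylation by recombinant human enzyme; IC50 by sigmoidal fit with top/bottom baselines and Hill slope.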

Setting [5] is: method AA1 (30 μM ATP) or AA2 (1000 μM ATP), not stated per value.
Setting [6] is: method AA1 (90 μM ATP) or AA2 (1000 μM ATP), not stated per value.
The mark [7] stands for this setting: method AA1 (3 μM ATP) or AA2 (1000 μM ATP), not stated per value.
[8] abbreviates: compound at 500 nM or 1 mM, 90 μM ATP.
Setting [9] is: compound at a concentration of 500 nM or 1 mM (not specified), cells shown as percentage.

Chain of TYK2 (P29597 whole entry): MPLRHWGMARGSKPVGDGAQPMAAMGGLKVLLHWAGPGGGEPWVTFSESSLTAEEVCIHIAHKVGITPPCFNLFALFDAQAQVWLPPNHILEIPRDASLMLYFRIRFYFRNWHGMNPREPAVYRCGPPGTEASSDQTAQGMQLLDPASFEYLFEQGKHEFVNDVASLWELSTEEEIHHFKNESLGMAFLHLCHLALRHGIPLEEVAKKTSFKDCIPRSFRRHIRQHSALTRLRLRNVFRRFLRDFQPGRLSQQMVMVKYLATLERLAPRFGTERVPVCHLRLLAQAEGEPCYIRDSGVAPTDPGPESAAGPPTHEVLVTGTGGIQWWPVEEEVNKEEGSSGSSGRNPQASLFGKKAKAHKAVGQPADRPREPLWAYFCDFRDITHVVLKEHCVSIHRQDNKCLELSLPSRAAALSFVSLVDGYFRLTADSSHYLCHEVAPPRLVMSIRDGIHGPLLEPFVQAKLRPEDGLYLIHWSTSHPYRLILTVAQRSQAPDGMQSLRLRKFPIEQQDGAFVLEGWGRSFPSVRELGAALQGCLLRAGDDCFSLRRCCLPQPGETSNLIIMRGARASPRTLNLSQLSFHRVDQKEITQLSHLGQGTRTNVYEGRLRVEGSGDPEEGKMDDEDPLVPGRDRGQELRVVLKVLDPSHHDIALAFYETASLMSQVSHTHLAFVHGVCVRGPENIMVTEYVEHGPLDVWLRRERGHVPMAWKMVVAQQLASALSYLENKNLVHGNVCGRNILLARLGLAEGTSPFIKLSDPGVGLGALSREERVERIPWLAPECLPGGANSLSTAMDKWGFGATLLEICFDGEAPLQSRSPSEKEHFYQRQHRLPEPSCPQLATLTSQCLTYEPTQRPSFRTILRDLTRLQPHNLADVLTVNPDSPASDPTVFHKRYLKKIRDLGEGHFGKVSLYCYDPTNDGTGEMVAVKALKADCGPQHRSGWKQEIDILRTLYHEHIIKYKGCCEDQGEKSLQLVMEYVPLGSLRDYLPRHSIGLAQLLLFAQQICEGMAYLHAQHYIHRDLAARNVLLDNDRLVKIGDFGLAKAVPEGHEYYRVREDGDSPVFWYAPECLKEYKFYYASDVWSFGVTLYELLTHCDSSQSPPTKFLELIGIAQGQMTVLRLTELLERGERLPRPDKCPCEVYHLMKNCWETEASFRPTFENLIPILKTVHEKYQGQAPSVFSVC
T4 sequence (Q9UM73 19-1620): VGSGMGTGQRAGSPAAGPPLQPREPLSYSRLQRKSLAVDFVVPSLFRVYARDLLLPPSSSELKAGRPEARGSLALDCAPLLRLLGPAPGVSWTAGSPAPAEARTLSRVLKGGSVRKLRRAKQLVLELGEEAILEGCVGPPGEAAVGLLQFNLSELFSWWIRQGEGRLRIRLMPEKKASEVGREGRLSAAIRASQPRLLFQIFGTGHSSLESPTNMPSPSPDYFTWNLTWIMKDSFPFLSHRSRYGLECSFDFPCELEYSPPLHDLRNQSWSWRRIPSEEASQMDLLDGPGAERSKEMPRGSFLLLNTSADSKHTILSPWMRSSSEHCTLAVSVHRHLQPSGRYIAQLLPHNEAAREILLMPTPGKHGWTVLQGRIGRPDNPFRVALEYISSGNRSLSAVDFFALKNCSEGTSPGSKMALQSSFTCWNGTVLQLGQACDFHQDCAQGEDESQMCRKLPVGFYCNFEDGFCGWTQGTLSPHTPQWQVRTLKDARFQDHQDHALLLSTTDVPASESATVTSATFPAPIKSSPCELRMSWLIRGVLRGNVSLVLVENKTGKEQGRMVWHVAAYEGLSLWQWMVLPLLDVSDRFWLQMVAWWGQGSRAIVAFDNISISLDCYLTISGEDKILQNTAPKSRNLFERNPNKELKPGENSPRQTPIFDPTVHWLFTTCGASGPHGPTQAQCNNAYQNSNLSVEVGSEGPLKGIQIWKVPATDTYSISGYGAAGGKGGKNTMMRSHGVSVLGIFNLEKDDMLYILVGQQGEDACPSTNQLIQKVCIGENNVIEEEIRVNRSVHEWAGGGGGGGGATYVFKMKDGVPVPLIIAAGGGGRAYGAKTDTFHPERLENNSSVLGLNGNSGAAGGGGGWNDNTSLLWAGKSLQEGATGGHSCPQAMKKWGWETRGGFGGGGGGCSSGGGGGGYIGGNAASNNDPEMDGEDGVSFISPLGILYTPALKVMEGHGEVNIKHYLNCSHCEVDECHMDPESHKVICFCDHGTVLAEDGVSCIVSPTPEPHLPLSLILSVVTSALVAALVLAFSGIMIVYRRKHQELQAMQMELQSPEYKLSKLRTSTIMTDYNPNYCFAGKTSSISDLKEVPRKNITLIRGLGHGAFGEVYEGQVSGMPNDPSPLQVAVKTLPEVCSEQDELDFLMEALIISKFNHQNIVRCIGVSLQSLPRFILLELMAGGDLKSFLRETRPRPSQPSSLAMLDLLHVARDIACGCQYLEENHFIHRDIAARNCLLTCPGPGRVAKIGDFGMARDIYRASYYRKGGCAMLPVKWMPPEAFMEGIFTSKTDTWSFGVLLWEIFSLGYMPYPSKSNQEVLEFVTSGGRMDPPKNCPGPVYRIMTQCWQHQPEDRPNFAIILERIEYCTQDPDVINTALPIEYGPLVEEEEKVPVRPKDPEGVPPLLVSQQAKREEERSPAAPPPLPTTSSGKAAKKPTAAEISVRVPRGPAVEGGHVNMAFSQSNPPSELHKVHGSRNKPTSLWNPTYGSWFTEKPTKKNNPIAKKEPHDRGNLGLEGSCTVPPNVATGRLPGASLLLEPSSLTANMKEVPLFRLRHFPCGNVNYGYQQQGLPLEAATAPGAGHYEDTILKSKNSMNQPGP
T1 sequence (O60674 828-1132): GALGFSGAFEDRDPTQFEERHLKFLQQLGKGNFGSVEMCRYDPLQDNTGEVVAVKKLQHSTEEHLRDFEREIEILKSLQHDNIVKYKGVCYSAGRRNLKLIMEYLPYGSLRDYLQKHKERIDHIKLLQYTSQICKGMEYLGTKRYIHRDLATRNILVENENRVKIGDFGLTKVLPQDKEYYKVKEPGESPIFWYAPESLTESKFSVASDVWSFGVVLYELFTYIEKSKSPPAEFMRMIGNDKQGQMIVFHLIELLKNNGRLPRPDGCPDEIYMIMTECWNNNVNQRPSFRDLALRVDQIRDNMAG
T3 sequence (P52333 781-1124): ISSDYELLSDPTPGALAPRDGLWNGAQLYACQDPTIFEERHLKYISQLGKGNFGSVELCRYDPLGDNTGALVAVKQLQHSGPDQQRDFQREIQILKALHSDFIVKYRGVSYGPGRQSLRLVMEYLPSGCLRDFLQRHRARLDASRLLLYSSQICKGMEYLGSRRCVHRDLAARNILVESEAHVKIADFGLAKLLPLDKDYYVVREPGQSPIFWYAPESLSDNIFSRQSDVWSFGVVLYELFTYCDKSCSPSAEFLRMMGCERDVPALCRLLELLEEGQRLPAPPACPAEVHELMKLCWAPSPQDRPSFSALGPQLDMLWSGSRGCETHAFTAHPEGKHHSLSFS
T2 sequence (P23458 849-1154): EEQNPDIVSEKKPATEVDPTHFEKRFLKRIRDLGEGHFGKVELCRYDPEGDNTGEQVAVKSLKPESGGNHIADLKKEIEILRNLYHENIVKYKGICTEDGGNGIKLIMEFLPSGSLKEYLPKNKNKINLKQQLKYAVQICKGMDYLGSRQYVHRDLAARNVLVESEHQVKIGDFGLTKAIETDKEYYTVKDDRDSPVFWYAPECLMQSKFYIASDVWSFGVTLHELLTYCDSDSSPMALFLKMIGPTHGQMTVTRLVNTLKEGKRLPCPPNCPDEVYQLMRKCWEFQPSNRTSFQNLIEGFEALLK

As for `CN(C)S(=O)(=O)N1CCC(CC(=O)Nc2ccc3cc2CCc2cccc(c2)Nc2ncc(Cl)c(n2)N3)CC1` [Example A81, N-[6-Chloro-2,4,8,22-tetraazatetracyclo[14.3.1.1(3,7).1(9,13)]docosa-1(20),3(22),4,6,9(21),10,12,16,18-nonaen-12-yl]-2-{1-[(dimethylamino)sulfonyl]piperidin-4-yl}acetamide trifluoroacetate], the IC50 (commonly the midpoint of a concentration-inhibition curve) in experiment [1] (setting [5]) is 1.6 nM; in experiment [2] (setting [6]), 4.7 nM; in experiment [3] (setting [7]) it was 24 nM; at TYK2, 4.3 nM. In experiment [4] (setting [8]), the “ALK % of inhibition at a concentration of 500 nM or 1 mM” value (shortened to “ALK % of inhibition”) was 29%.

Turning to `O=C(Nc1ccc2cc1CCc1cccc(c1)Nc1ncc(Cl)c(n1)N2)C1CCN(C(=O)Cc2ccccc2)CC1` [Example A35, N-[6-Chloro-2,4,8,22-tetraazatetracyclo[14.3.1.1(3,7).1(9,13)]docosa-1(20),3(22),4,6,9(21),10,12,16,18-nonaen-12-yl]-1-(phenylacetyl)piperidine-4-carboxamide trifluoroacetate], the IC50 in experiment [1] (setting [5]) was 62 nM; in experiment [2] (setting [6]) it was 42 nM; in experiment [3] (setting [7]), 82 nM; against TYK2 it was 228 nM. In experiment [4] (setting [8]), the “ALK % of inhibition” value was 38%.

For `O=C(Nc1ccc2cc1CCc1cccc(c1)Nc1ncc(Cl)c(n1)N2)N[C@H]1CCN(C(=O)c2nccs2)C1` [Example B231, N-[6-Chloro-2,4,8,22-tetraazatetracyclo[14.3.1.1(3,7).1(9,13)]docosa-1(20),3(22),4,6,9(21),10,12,16,18-nonaen-12-yl]-N′-[(3S)-1-(1,3-thiazol-2-ylcarbonyl)pyrrolidin-3-yl]urea trifluoroacetate], the 50% inhibitory concentration (IC50) in experiment [1] (Table B1) came out at 5.5 nM; in experiment [2] (Table B1) it was 4 nM; in experiment [3] (Table B1) it was 65 nM; on TYK2 (Table B1), 16 nM. Besides, in experiment [4] (setting [9]), the “ALK % of inhibition” value came to 8.1%.

`CC(C)S(=O)(=O)N1CCC(CC(=O)Nc2ccc3cc2CCc2cncc(c2)Nc2ncc(Cl)c(n2)N3)CC1` [Example A97, N-[6-Chloro-2,4,8,18,22-pentaazatetracyclo[14.3.1.1(3,7).1(9,13)]docosa-1(20),3(22),4,6,9(21),10,12,16,18-nonaen-12-yl]-2-[1-(isopropylsulfonyl)piperidin-4-yl]acetamide bis(trifluoroacetate)]: the IC50 in experiment [1] (setting [5]) amounted to 7.5 nM; in experiment [2] (setting [6]), 3.9 nM; in experiment [3] (setting [7]) it was 34 nM; against TYK2, 11 nM. Besides, the “ALK % of inhibition” value in experiment [4] (setting [8]) came to 31%.

On to `O=C(Nc1ccc2cc1CCc1cccc(c1)Nc1ncc(Cl)c(n1)N2)[C@@H]1CCN(C(=O)c2ccccc2)C1` [Example A52, (3R)-1-Benzoyl-N-[6-chloro-2,4,8,22-tetraazatetracyclo[14.3.1.1(3,7).1(9,13)]docosa-1(20),3(22),4,6,9(21),10,12,16,18-nonaen-12-yl]pyrrolidine-3-carboxamide trifluoroacetate], for which the IC50 was 4.5 nM in experiment [1] (setting [5]), 2.2 nM in experiment [2] (setting [6]), 7.8 nM in experiment [3] (setting [7]) and 15 nM at TYK2. Moreover, the “ALK % of inhibition” value in experiment [4] (setting [8]) turned out to be 35%.

Take `CCc1ccccc1NC(=O)Nc1ccc2cc1CCc1cccc(c1)Nc1ncc(Cl)c(n1)N2` [Example B97, N-[6-Chloro-2,4,8,22-tetraazatetracyclo[14.3.1.1(3,7).1(9,13)]docosa-1(20), 3(22),4,6,9(21),10,12,16,18-nonaen-12-yl]-N′-(2-ethylphenyl)urea trifluoroacetate]: the 50% inhibitory concentration (IC50) was 9 nM in experiment [1] (Table B1), 3.9 nM in experiment [2] (Table B1), 35 nM in experiment [3] (Table B1) and 16 nM against TYK2 (Table B1). The “ALK % of inhibition” value in experiment [4] (setting [9]) amounted to 40%.
